Earlier results on one molecule are cited in patent publication US20090312311A1, “COMBINATION OF ORGANIC COMPOUNDS” (priority 2006, published 2009).

The test system of one data set is cardiac hypertrophy. The following applies: transgenic mice that overexpress Hop; Kook et al. 2003.
Data set [1] relates to hypertrophy induced by infusion of isoproterenol.

Regarding `CC(/C=C/C(=O)NO)=C\[C@@H](C)C(=O)c1ccc(N(C)C)cc1` [trichostatin A], the “effect on cardiac hypertrophy” value with cardiac hypertrophy is “prevents cardiac hypertrophy”. The effect on hypertrophy entry in data set [1] was “attenuates hypertrophy”.
